According to publication PMC3556473, “Absorption, metabolism and excretion of [^14C]pomalidomide in humans following oral administration” (Cancer Chemotherapy and Pharmacology, 2012):
Where two headings read alike, the source gives them in different places.

How the values were obtained:
[1] = Plasma pharmacokinetics of pomalidomide and its enantiomers (chiral LC–MS/MS) after a single oral 2 mg dose of [14C]pomalidomide; type: in vivo, human; settings: for C max: healthy male subjects; for C max / AUC0−t / AUC0−∞ / t ½: mean ± SD (n = 8); for T max: median (min–max)
Description: This was an open-label, in-patient, single-dose study in eight non-smoking healthy male adult volunteers conducted in accordance with Good Clinical Practices (GCP) and in compliance with the Declaration of Helsinki. The protocol and consent form were reviewed and approved by the appropriate institutional review board, and all study participants gave written informed consent, before initiation of any study-related procedure. Male subjects were eligible based on standard inclusion/exclusion criteria and were excluded if they had exposure to excess radiation or participated in a study involving radioisotopes within the previous 12 months. Subjects entered the study center on the day prior to dosing and remained at the center for up to 15 days following dosing or until the total radioactivity recovered in excreta was ≥90 % or the radioactivity recovered in excreta per day on three consecutive days was ≤1 % of the administered radioactive dose.
Each subject was administered a single oral suspension of 2 mg (100 μCi) of [^14C]pomalidomide in seltzer water (75 mL) followed by administration of an additional 140 mL of distilled water. Subjects were fasted for 8 h prior to and 4 h following dose administration. The residual radioactivity in the dosing vials was determined, and for six of the eight subjects (subjects 1–4, 6 and 8), the administered dose (1.93–2.02 mg) was close to the target dose of 2 mg. For subjects 5 and 7, a significant amount of radioactivity remained in the dose vial, resulting in administered doses of 1.59 and 1.51 mg, respectively. Calculations for percent of dose recovered in excreta were based on the actual administered doses.
Blood was collected into pre-chilled K3EDTA tubes at pre-dose, 0.5, 1, 1.5, 2, 2.5, 3, 4, 6, 8, 10, 12, 24, 48, 72, 120 and 168 h following dose administration. Blood for radioactivity counting was transferred to a clean tube and stored at or below 4 °C until analyzed. Plasma was harvested by centrifugation from the remaining blood. A plasma sample for radioactivity counting was transferred to a fresh tube. Three plasma aliquots were transferred to tubes containing citric acid for metabolite profiling and for determination of pomalidomide enantiomer concentrations in plasma. Urine was collected pre-dose, 0–6, 6-12, 12–24 and every 24 h thereafter up to 216 h (9 days) following dose administration and were stabilized with one volume of pH 1.5 Sorensen’s citrate buffer (25 mM sodium citrate buffer adjusted to pH 1.5). During the 12- to 24-h collection interval for subject 4, approximately 550 mL of urine was inadvertently poured into the wrong collection urinal and the sample was lost. […] Individual fecal samples were collected pre-dose and for up to 9 days following dose administration, and homogenized using approximately three volumes by weight of pH 1.5 Sorensen’s citrate buffer. All urine, fecal homogenates and plasma samples were stored at or below −20 °C until analyzed.
Plasma concentrations of each pomalidomide enantiomer were determined using a chiral LC–MS/MS assay. The pomalidomide enantiomers and ^13C-labeled pomalidomide (internal standard; IS) were extracted from plasma (stabilized with citric acid) using liquid–liquid extraction with methyl tertiary butyl ether. After transfer to a new tube, the solvent was evaporated, and the samples were reconstituted and injected for LC–MS/MS analysis using a Chiral AGP (50 × 3.0 mm, 5 μm; Chrom Tech, Inc., Apple Valley, MN) analytical column. Positive ions were measured in the multiple reaction monitoring (MRM) mode using a Sciex API-4000 tandem mass spectrometer equipped with a Turbo Ion Spray source. For the QC samples, the accuracy ranged from 91.0 to 106.9 %. For study samples, the amount of [^14C]-labeled material was accounted for when calculating the concentration of enantiomers in plasma using an appropriate correction factor. […]

[2] = lenalidomide, cited from earlier work
[3] = Plasma pharmacokinetics of pomalidomide and circulating metabolites by radiochromatography (metabolite profiling); type: in vivo, human; set-up: AUC0–24 / AUC0−∞: concentration or dose not given beside the values
Procedure: Individual plasma samples collected from all subjects at 1, 2.5, 4, 6, 10, 12 and 24 h post-dose were analyzed for metabolite profiling. Samples were extracted with acetonitrile, the supernatant was removed, and the pellet was washed with 0.1 % formic acid in water and extracted again with acetonitrile. The combined supernatants were adjusted to 15 or 25 mL by adding acetonitrile then evaporated to dryness under a stream of nitrogen. The residues were re-suspended in 0.1 % formic acid in water, assayed for extraction recovery and analyzed for metabolite profiling. A control plasma sample spiked with [^14C]pomalidomide was extracted in a similar manner to determine the extraction efficiency and stability of [^14C]pomalidomide.
(§1) HPLC analysis for metabolite profiling (HPLC Method 1) was performed using a Waters 2695 Alliance Separation Module (Waters Corp., Milford, MA) with the autosampler set to 4 °C. [^14C]Pomalidomide and metabolites were separated using an ACE C18 column (150 × 4.6 mm, 3 μm; Advanced Chromatography Technologies, Aberdeen, Scotland) equipped with an ACE C18 guard column (10 × 3 mm, 3 μm). The mobile phases used were 25 mM ammonium acetate in water: pH 5.5 with formic acid (mobile phase A) and methanol (mobile phase B). The column temperature was 30 °C, and the flow rate was 0.7 mL/min. The linear gradient was delivered as follows: 0–2 min 100 % A; 2–38 min to 64 % A; 38–44 min to 0 % A; 44–48 min hold at 0 % A; return to initial conditions over 2 min.
(§2) Radioactivity profiles for plasma and excreta were determined by collecting the column eluate into 96-well Deepwell LumaPlates™ at a rate of 0.25 min/fraction. The plates were dried and the radioactivity in each well determined using a PerkinElmer TopCount® NXT™ Microplate Scintillation Counter. HPLC radiochromatograms were reconstructed using LC-ARC data handling software.
For pomalidomide and metabolite concentrations in plasma based on metabolite profiling data, pharmacokinetic data were generated by non-compartmental analysis of plasma versus time profiles using WinNonlin (version 4.1, Enterprise Edition).

[4] = Metabolite profiling of urine and feces (% of dose excreted); type: in vivo, human; settings: radiochromatography; for % of dose excreted, Urine: pooled urine 0–72 h
Procedure: For each subject, urine samples were pooled using an equal percentage by volume of the 0–6, 6–12, 12–24, 24–48 and 48–72 h samples. Pools of the 0–6, 6–12, 12–24, 24–48 and 48-72 h collections were also prepared across subjects and analyzed for metabolite profiling. Samples were mixed and centrifuged prior to the supernatants being transferred to fresh tubes for metabolite profiling analysis.
For each subject, fecal homogenates for metabolite profiling were pooled using an equal percentage by weight of the 0–24, 24–48, 48–72 and 72–96 h samples. Pools of the 0–24, 24-48, 48–72 and 72–96 h collections were also prepared across subjects and analyzed for metabolite profiling. An aliquot of each pool was extracted with acetonitrile; samples were mixed and centrifuged. The supernatant was removed and the pellets re-suspended with 0.1 % formic acid and extracted with acetonitrile. The combined supernatants were evaporated to dryness under a stream of nitrogen and the residue re-suspended in methanol:0.1 % formic acid in water (1:1). Samples were assayed for extraction recovery prior to metabolite profiling. A control fecal homogenate spiked with [^14C]pomalidomide was extracted in a similar manner to determine the extraction efficiency and stability of [^14C]pomalidomide.
as §1, §2

U266 MM cell = assay: Inhibition of MM cell proliferation ([3H]-thymidine incorporation, 3-day culture); type: cell-based; settings: Homo sapiens, U-266
Procedure: (§3) Metabolites and hydrolysis products of pomalidomide were tested for pharmacological activity in the following three assay systems: (1) inhibition of MM cell proliferation, (2) enhancement of primary human T cell IL-2 production and (3) inhibition of TNF-α production by lipopolysaccharide (LPS)-stimulated human peripheral blood mononuclear cells (PBMC). For all three assay types, compounds were dissolved in 100 % dimethyl sulfoxide (DMSO) and diluted into complete cell culture medium, consisting of Roswell Park Memorial Institute (RPMI)-1640 plus penicillin, streptomycin and L-glutamine (Mediatech, Manassas, VA). The MM cell proliferation cell culture medium contained 10 % fetal bovine serum, while the primary human cell cultures contained 10 % human AB serum (Invitrogen, Brown Deer, WI). The final DMSO concentration in the cell culture media was 0.25 %.
(§4) The human MM cell line OPM-2 was obtained from DSMZ (Braunschweig, Germany), and human MM cell lines U266 B1 and NCI-H929 were obtained from ATCC (Manassas, VA). Inhibition of MM cell proliferation was assessed by the [^3H]-thymidine incorporation assay in a 3-day culture in the presence of compounds in complete medium, as previously described. Primary human T cells were isolated from PBMC by negative selection using the RosetteSep T Cell Enrichment Cocktail (STEMCELL Technologies, Tukwila, WA) according to the manufacturer’s procedures. Costimulation of T cell IL-2 production was measured in a 2-day culture of primary human T cells isolated from healthy donors stimulated with anti-CD3 antibody in the presence of compounds, as previously described. Inhibition of TNF-α production by LPS-stimulated human PBMC was measured in a 1-day culture in the presence of compound, as previously described.

H929 MM cell = assay: as above; type: cell-based; settings: Homo sapiens, NCI-H929
Procedure: as §3, §4

OPM-2 MM cell = assay: as above; type: cell-based; settings: Homo sapiens
Procedure: as §3, §4

T cell IL-2 production = assay: Enhancement of primary human T cell IL-2 production (anti-CD3 stimulated, 2-day culture); type: cell-based; settings: 48 h, anti-CD3 stimulated primary human T cells
Procedure: as §3, §4

PBMC TNF-α production = assay: Inhibition of TNF-α production by LPS-stimulated human PBMC (1-day culture); type: cell-based; settings: 24 h
Procedure: as §3, §4

[5] = plasma, radiochromatography, geometric mean (%CV)

Nc1cccc2c1C(=O)N([C@@H]1CCC(=O)NC1=O)C2=O (single isomer, unassigned) [R-enantiomer]
C max [1]: 6.36 ± 2.08 ng/mL | AUC0−t [1]: 67.7 ± 33.8 ng·h/mL | AUC0−∞ [1]: 95.1 ± 46.1 ng·h/mL | t ½ [1]: 9.5 ± 3.2 h | T max [1]: 3.0 (2.5–6.0) h

Nc1cccc2c1C(=O)N([C@H]1CCC(=O)NC1=O)C2=O (single isomer, unassigned) [S-enantiomer]
C max [1]: 6.78 ± 1.99 ng/mL | AUC0−t [1]: 66.9 ± 34.1 ng·h/mL | AUC0−∞ [1]: 96.4 ± 58.2 ng·h/mL | t ½ [1]: 8.8 ± 4.5 h | T max [1]: 3.0 (1.0–6.0) h

Nc1cccc2c1CN(C1CCC(=O)NC1=O)C2=O (stereo not drawn) [Lenalidomide, lenalidomide]
Percent dose excreted in human urine, Metabolites (oxidative and conjugative) [2]: 5.3% | Percent dose excreted in human urine, Parent [2]: 81.7% | Percent dose excreted in human urine, Total [2]: 90.3% | Percent dose excreted in human urine, Parent ([2]; listed as lenalidomide): > 80% | Percent dose excreted in human urine, Total ([2]; listed as lenalidomide): > 90%

Nc1cccc(C(=O)O)c1C(=O)O [Metabolite M2, 3-Aminophthalic acid]
Plasma (% AUC relative to TRA) ([3]; AUC0–24 (unchanged drug or metabolite)/AUC0–24 (TRA) * 100 %): 1.7% | Tmax ([3]; human, oral, 2 mg, plasma, radiochromatography, median and range): 6 h | half-life ([3]; male, human, plasma, oral, 2 mg, plasma, radiochromatography, geometric mean (%CV), read-out: t ½ (converted)): 13.2 h | AUC/AUCTRA ([3]; plasma exposure relative to total radioactivity): 1.71% | AUC0–24 [3, 5]: 3.31 (28.4) ngEq*h/mL | AUC0−∞ [3, 5]: 4.27 (12.7) ngEq*h/mL | C max [3, 5]: 0.238 (36.3) ngEq/mL | % of dose excreted, Urine [4]: 1.4%

NC(=O)C(CCC(=O)O)N1C(=O)c2cccc(N)c2C1=O (stereo not drawn) [Metabolite M10]
IC50 (U266 MM cell): > 1000 nM | IC50 (H929 MM cell): > 1000 nM | IC50 (OPM-2 MM cell): > 1000 nM | % of dose excreted, Feces ([4]; pooled feces 0–96 h): 0.3% | % of dose excreted, Urine [4]: 1.5% | EC50 (T cell IL-2 production): 720 nM | IC50 (PBMC TNF-α production): > 10000 nM
